Activity calls are given as the source filed them. The calls are words filed in the database; no cut-off is given here.

The values below come from ChEMBL document CHEMBL3244235, “Relationships between opiate receptor binding and analgetic properties of prodine-type compounds” (1977).

In experiment [1] the test system is Mus musculus. The experiment is described as follows: Analgesic activity in sc dosed mouse by hot plate method. It is filed as functional. (Thermal pain tests record how soon the animal reacts.)
Experiment [2] addresses T1, Opioid receptor (Rattus norvegicus) (UniProt P33533+P34975+P33535). The experiment is described as follows: Displacement of nonspecific [3H]dihydromorphine from opiate receptor in rat brain homogenates at 10^-5 M after 10 mins by scintillation counting. In kind it is tissue-based.
In experiment [3] the target is T1, Opioid receptor (Rattus norvegicus). The experiment is described as follows: Displacement of specific [3H]dihydromorphine from opiate receptor in rat brain homogenates at 10^-5 M after 10 mins by scintillation counting. In kind it is tissue-based.

T1 sequence (P33533 whole entry, looked up): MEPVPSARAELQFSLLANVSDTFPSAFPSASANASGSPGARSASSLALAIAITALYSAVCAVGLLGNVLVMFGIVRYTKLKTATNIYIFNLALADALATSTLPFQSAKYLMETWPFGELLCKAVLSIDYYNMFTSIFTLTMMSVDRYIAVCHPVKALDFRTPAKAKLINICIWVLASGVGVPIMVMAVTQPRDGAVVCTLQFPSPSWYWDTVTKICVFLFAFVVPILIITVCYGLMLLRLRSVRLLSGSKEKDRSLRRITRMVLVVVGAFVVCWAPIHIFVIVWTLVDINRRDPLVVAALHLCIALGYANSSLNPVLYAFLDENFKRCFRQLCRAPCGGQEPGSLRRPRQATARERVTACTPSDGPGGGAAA
T1 sequence (P33535 whole entry, looked up): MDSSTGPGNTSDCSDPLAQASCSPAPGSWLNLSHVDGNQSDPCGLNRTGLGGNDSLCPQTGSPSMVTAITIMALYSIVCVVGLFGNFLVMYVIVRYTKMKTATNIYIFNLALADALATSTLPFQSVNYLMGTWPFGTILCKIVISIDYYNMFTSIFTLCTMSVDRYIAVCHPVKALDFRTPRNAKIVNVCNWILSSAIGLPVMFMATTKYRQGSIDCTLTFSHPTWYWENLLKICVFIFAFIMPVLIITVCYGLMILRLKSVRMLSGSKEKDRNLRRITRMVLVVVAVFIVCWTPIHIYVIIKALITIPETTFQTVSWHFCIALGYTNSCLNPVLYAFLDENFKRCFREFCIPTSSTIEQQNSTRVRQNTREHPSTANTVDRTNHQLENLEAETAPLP
T1 sequence (P34975 whole entry, looked up): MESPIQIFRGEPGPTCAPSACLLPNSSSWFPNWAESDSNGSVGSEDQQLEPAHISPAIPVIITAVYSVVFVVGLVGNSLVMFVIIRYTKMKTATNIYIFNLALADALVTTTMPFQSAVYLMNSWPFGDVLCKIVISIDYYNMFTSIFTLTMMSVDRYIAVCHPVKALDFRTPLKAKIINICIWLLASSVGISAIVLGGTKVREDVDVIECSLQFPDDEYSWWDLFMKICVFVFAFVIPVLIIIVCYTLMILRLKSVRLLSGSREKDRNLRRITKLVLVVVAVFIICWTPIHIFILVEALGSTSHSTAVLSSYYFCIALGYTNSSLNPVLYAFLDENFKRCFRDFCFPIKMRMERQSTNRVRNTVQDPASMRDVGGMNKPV

A word on the ED50: it is the dose at which the effect has come halfway, by size or by number of responders. With `CCC(=O)O[C@]1(c2ccccc2)CCN(C)C[C@H]1CC.Cl` (relative stereo), in experiment [1], it took a dose of 3.5 mg/kg to reach the 50% effect level (ED50).
Turning to `CCCCCC[C@H]1CN(C)CC[C@]1(OC(=O)CC)c1ccccc1.Cl` (relative stereo), the inhibition entry in experiment [2] and in experiment [3] was “Active” throughout. Also, the ED50 in experiment [1] was determined as 80 mg/kg.
In experiment [1], `CN1CC[C@]23c4c5ccc(O)c4O[C@H]2[C@@H](O)C=C[C@H]3[C@H]1C5.Cl` [MORPHINE HYDROCHLORIDE] registered an ED50 of 1.2 mg/kg.
For the compound `CCC(=O)O[C@]1(c2ccccc2)CCN(C)C[C@@H]1CC.Cl` (relative stereo), the 50% effect level in experiment [1] (ED50) was put at a dose of 0.4 mg/kg.
Take `CCC(=O)O[C@]1(c2ccccc2)CCN(C)C[C@@H]1C.Cl` (relative stereo): in experiment [1], the 50% effect level (ED50) was put at a dose of 0.92 mg/kg. Against the preceding compound, the ED50 is about 2.3-fold higher.
The compound `CCCCCC[C@@H]1CN(C)CC[C@]1(OC(=O)CC)c1ccccc1.Cl` (relative stereo) came in with an ED50 in experiment [1] of 54.4 mg/kg.
Still for that read-out and setting: with `C=CC[C@H]1CN(C)CC[C@]1(OC(=O)CC)c1ccccc1.Cl` (relative stereo) the figure was 0.09 mg/kg; with `C=CCC1CN(C)CCC1(OC(=O)CC)c1ccccc1.Cl` (configuration not stated), 0.03 mg/kg; with `CCC(=O)O[C@]1(c2ccccc2)CCN(C)C[C@H]1C.Cl` (relative stereo), 0.18 mg/kg.
In the case of `C=CC[C@@H]1CN(C)CC[C@]1(OC(=O)CC)c1ccccc1.Cl` (relative stereo), the ED50 in experiment [1] was determined as 11.7 mg/kg.
